According to patent publication US9533973B2, “Allosteric modulators of 5-hydroxytryptamine 2C receptor (5-HT2CR)” (THE BOARD OF REGENTS OF THE UNIVERSITY OF TEXAS SYSTEM, priority 2011, dated 2017):

How the values were obtained:
5-HT2AR = target: T1, 5-HT2AR (Homo sapiens, UniProt P28223); experiment: 5-HT induced intracellular calcium (Cai++) release assay in live 5-HT2AR-CHO cells; type: cell-based; settings: compound alone or in the presence of 5-HT
T1 construct: expressed in transfected cells; host or cells: CHO cells (5-HT2AR—CHO)
T1 sequence (P28223 whole entry): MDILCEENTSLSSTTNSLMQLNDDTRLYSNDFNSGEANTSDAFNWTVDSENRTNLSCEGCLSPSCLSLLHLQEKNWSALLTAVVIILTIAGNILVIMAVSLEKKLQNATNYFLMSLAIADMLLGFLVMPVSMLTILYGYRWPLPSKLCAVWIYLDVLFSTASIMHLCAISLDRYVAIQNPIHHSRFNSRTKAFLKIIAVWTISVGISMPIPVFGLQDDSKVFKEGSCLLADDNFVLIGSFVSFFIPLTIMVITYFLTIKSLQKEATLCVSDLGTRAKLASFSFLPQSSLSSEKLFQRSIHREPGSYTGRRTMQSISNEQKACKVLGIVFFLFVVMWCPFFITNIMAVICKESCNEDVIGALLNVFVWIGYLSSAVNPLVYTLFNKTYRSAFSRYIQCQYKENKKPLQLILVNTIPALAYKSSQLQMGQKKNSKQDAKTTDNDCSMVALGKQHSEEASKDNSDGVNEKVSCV
Experimental: Selected results for the biological characterization of the synthesized compounds can be found in Ding et al., ACS Chem. Neurosci., 3, 538-545, 2012, and also described herein. The biological activity is assessed using an intracellular calcium (Cai^++) release assay. The best-characterized intracellular signaling pathway of the 5-HT2CR is the activation of phospholipase C (PLCβ) via Gαq/11 proteins and the production of diacylglycerol (DAG) and inositol-1,4,5-trisphosphate (IP3), leading to increased Cai^++ release from intracellular stores (Berg et al., Neuropharmacology 55, 969-76, 2008). Functional characterization of our synthetic PNU-69176E (CYD-1-78-2) and its diastereomer CYD-1-78-1 was determined by utilizing an Cai^++ release assay in live cells in which Cai^++ levels can be regarded as an outcome measure of activation of the 5-HT2CR signaling pathway (Berg et al., Neuropharmacology 55, 969-76, 2008). […]
Changes in Cai^++ levels were determined using the calcium sensitive dye Calcium 4 (FLIPR No-wash kit, Molecular Devices, Sunnyvale, Calif., part #R8142). […] Fluorescence (λex=485 nm, λem=525 nm) was measured with a FlexStation3 (Molecular Devices). […] Addition of 20 μL of 5× concentrated tested compound occurred at 17 sec and fluorescence was recorded every 1.7 sec for 90 sec to determine any innate agonist activity. […]

rats = experiment: Spontaneous locomotor activity (open field horizontal ambulation); type: in vivo, rat
Experimental: Locomotor activity was monitored and quantified under low light conditions using a modified open field activity system (San Diego Instruments, San Diego, Calif.) according to previous publications with minor modifications (Cunningham et al., 2011, Neuropharmacology 61:513-523). Clear Plexiglass chambers (40×40×40 cm) were surrounded by a 4×4 photobeam matrix positioned 4 cm from the chamber floor. Consecutive photobeam breaks within the 16×16 cm of the activity monitor were recorded as central ambulation. Peripheral ambulation was counted as consecutive beam breaks in the surrounding perimeter. Central and peripheral ambulations were summed to provide a measure of total horizontal ambulation. […] The effects of CYD-1-78-2 and CYD-1-79 alone or in combination with the selective 5-HT2CR agonist WAY163909 were established in a within-subjects design. To control for order effects, drug doses and vehicles were administered in random sequence to individual rats across sessions such that all rats received all treatment combinations and were tested every three days. Rats received vehicle (saline, 1 mL/kg, i.p.), CYD-1-78-2 (0.5, 1, or 3 mg/kg, i.p.) or the combination of CYD-1-78-2 (0.5 mg/kg, i.p.) plus WAY163909 (1 mg/kg, i.p.) immediately prior to placement in activity monitors on each test day; locomotor activity was assessed for 90 min. In a separate cohort of rats, rats received vehicle (saline, 1 mL/kg, i.p.), CYD-1-79 (0.5, 1, or 5 mg/kg, i.p.) or the combination of CYD-1-79 (0.5 mg/kg, i.p.) plus WAY163909 (1 mg/kg, i.p.) immediately prior to placement in activity monitors on each test day; locomotor activity was assessed for 90 min. The combination of CYD-1-78-2 plus WAY163909 or CYD-1-79 plus WAY163909 was administered simultaneously.
Locomotor activity data are presented as mean total horizontal ambulation (±SEM) over the entire 90-min session or within 5 min time bins across the session. A two-way ANOVA for repeated measures for the factors of treatment and time was conducted. The main effect of treatment on total horizontal ambulation was analyzed with a repeated measures, one-way analysis of variance using the GLM procedure (SAS for Windows). Subsequent a priori comparisons between means for total horizontal ambulation were made using the Dunnett's procedure, with vehicle (saline) as the comparator.

CCCCCCCCCCC[C@@H]1CCN[C@H](C(=O)N[C@@H]([C@H]2O[C@H](SC)[C@H](O)[C@@H](O)[C@H]2O)[C@H](C)Cl)C1.Cl [CYD-1-78-2]
alteration of Cai++ release in 5-HT2AR-CHO cells (5-HT2AR): neither
effect on spontaneous locomotor activity (rats; 0.5 mg/kg alone): ineffective
total horizontal ambulation versus saline, combination with WAY163909 (rats; 0.5 mg/kg i.p. plus WAY163909 1 mg/kg i.p., 90-min session, p<0.05): significantly reduces
horizontal ambulation versus saline in 5-min intervals, combination with WAY163909 (rats; 0.5 mg/kg i.p. plus WAY163909 1 mg/kg i.p., CYD-1-78-2: interval 1 and 2, CYD-1-79: interval 2, p<0.05): significantly reduces
horizontal ambulation versus saline in 5-min intervals (rats; 1 mg/kg i.p., at interval 4, 5 and 6, p<0.05): significantly reduces
total horizontal ambulation summed across the 90-min test session versus saline (rats; 1 mg/kg i.p., p<0.05): significantly reduces
horizontal ambulation versus saline in 5-min intervals (rats; 3 mg/kg i.p., at interval 1, 2, 3 and 11, p<0.05): significantly reduces
total horizontal ambulation summed across the 90-min test session versus saline (rats; 3 mg/kg i.p., p<0.05): significantly reduces
total ambulations (rats; 1 and 3 mg/kg, i.p., unhabituated animals, 90 minutes): dose-dependently decreases
selective 5-HT2CR agonist-mediated suppression of spontaneous locomotor activity (rats; with WAY163909): augment
